The test system of test [1] is human liver cancer cell strain HepG2. Nature of the test: MTT growth inhibition on HepG2.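 Also: adherent cells in 96-well plates treated with a concentration series for 24, 48 or 72 h, MTT absorbance read at 490 nm, inhibition computed relative to untreated control wells.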 The test is classed as cell-based. The following applies: Homo sapiens.
Procedure: (§1) By using an MTT method, a sample solution to be tested was added to a 96-well plate in which cancer cells were adherently grown. Culturing was performed for a certain period, and the growth inhibition effect of a compound on a human cancer cell strain for primary screening was measured to determine the anti-cancer activity of the compound.
(§2) Cell culture: A cell incubator was set to conditions of 37° C., 5% CO2, and a saturated humidity, cells were cultured under these conditions, and the cell medium was a DMEM complete medium, wherein 10% fetal bovine serum, 100 IU/mL penicillin, and 100 μg/mL streptomycin were comprised.
(§3) The single cell suspension was diluted to 5×10^3/100 μL after counting, inoculated on a 96-well cell culture plate (triplicate), and adherently cultured overnight;
(§4) After 24 h of adhesion, the complete medium was discarded, 100 μL-sample-solutions to be tested having different concentrations were sequentially added to the 96-well plate according to a concentration gradient, and incubations were continued for 24 h, 48 h, and 72 h;
(§5) The culture liquid was discarded, a 0.5 mg/mL MTT diluted working liquid was added, and incubation was performed for 4 h by placing in an incubator;
(§6) The culture liquid was discarded, 100 μL of DMSO was added, low-speed oscillation was performed for 10 min by placing on a shaker, and the spectrophotometric value of each well was measured at a wavelength of 490 nm by using a microplate reader. Statistical analysis was performed and tumor cell growth inhibition rate was calculated according to the equation: Growth inhibition rate=(OD value of control group−OD value of experimental group)/OD value of control group.
(§7) Culturing was performed for a certain period, the growth inhibition effect of a compound on 3 human cancer cell strains for primary screening was measured to determine the anti-cancer activity of the compound, and a growth inhibition curve was plotted.
Test [2] relates to human cervical cancer Hela cell strains. Nature of the test: MTT growth inhibition on Hela.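 Also: compound exposure of 24, 48 or 72 h in DMEM with 10% fetal bovine serum, MTT absorbance read at 490 nm, inhibition calculated relative to control group OD.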 The following applies: Homo sapiens, HeLa.
Procedure: as §1, §2, §3, §4, §5, §6, §7
In test [3] the test system is human gastric cancer cell strain MGC-803. Nature of the test: MTT growth inhibition on MGC-803.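 Also: adherent cells exposed to compound over a concentration gradient for 24, 48 and 72 h, MTT absorbance at 490 nm, inhibition relative to untreated control wells.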 The following applies: Homo sapiens.
Procedure: as §1, §2, §3, §4, §5, §6, §7
Where [4] appears, read: HepG2, Table 1, MTT, read-out: IC50 HepG2.
Setting [5] is: MGC-803, read-out: IC50 MGC-803.
Where [6] appears, read: read-out: IC50 HeLa, Table 1, MTT.
The mark [7] stands for this setting: MGC-803, read-out: IC50 MGC-803, Table 1, MTT.

Here are results for 14 compounds from patent US10519132B2, “Isocorydine derivatives, preparation method and use thereof” (Lanzhou Institute of Chemical Physics, Chinese Academy of …, priority 2017, dated 2019).

SMILES strings stand for the structures. Where two headings read alike, the source gives them in different places.

By IC50 is commonly meant the point on the concentration scale where inhibition reaches its midpoint.

On to `COc1cc(NC(=O)Nc2ccc(Cl)c(Cl)c2)c2c(c1O)-c1c(OC)c(OC)cc3c1C(C2)N(C)CC3` (stereo not drawn) [Compound 2, 8-(N-(3′,4′-dichloro-phenyl))-ureido-isocorydine], for which the IC50 came out at 28.4 µM in test [1] (setting [4]), 21.7 µM in test [2] (read-out: IC50 HeLa) and 30 µM in test [3] (setting [5]).

For the compound `COc1cc(NC(=O)Nc2ccc(C)cc2)c2c(c1OC(=O)Nc1ccc(C)cc1)-c1c(OC)c(OC)cc3c1C(C2)N(C)CC3` (stereo not drawn) [Compound 3], the half-maximal inhibitory concentration (IC50) in test [1] (HepG2, read-out: IC50 HepG2) came to 16.1 µM; in test [2] (read-out: IC50 HeLa) it was 19.1 µM; in test [3] (setting [5]), 25.6 µM.

Consider `COc1cc(NC(=O)Nc2ccc(SC)cc2)c2c(c1O)-c1c(OC)c(OC)cc3c1C(C2)N(C)CC3` (stereo not drawn) [Compound 4, 8-(N-(4′-methylsulfide-phenyl))-ureido-isocorydine], for which the IC50 turned out to be 53.2 µM in test [1] (setting [4]), 46.6 µM in test [2] (setting [6]) and 47.8 µM in test [3] (setting [7]).

Regarding `COc1cc(NC(=O)Nc2ccccc2Cl)c2c(c1O)-c1c(OC)c(OC)cc3c1C(C2)N(C)CC3` (stereo not drawn) [Compound 5, 8-(N-(2′-dichloro-phenyl))ureido-isocorydine], the concentration for half-maximal inhibition (IC50) in test [1] (setting [4]) was found to be 36.7 µM; in test [2] (setting [6]) it was 36.9 µM; in test [3] (setting [7]) it was 35.2 µM.

As to `COc1cc(NC(=O)Nc2ccccc2Cl)c2c(c1OC(=O)Nc1ccccc1Cl)-c1c(OC)c(OC)cc3c1C(C2)N(C)CC3` (stereo not drawn) [Compound 6], the IC50 in test [1] (HepG2, read-out: IC50 HepG2) came to 17.2 µM; in test [2] (read-out: IC50 HeLa), 27.1 µM; in test [3] (setting [5]), 26.9 µM.

With `COc1cc(NC(=O)Nc2ccccc2C)c2c(c1OC(=O)Nc1ccccc1C)-c1c(OC)c(OC)cc3c1C(C2)N(C)CC3` (stereo not drawn) [Compound 7], the IC50 in test [1] (HepG2, read-out: IC50 HepG2) amounted to 31.4 µM; in test [2] (read-out: IC50 HeLa), 43.9 µM; in test [3] (setting [5]), 22.8 µM.

On to `COc1cc(NC(=O)Nc2ccc(C(F)(F)F)cc2)c2c(c1O)-c1c(OC)c(OC)cc3c1C(C2)N(C)CC3` (stereo not drawn) [Compound 8, 8-(N-(4′-trifluoromethyl-phenyl))-ureido-isocorydine], for which the half-inhibitory concentration (IC50) was 45.9 µM in test [1] (setting [4]), 49 µM in test [2] (setting [6]) and 57.3 µM in test [3] (setting [7]).

Take `COc1cc(NC(=O)Nc2ccc(C(F)(F)F)cc2)c2c(c1OC(=O)Nc1ccc(C(F)(F)F)cc1)-c1c(OC)c(OC)cc3c1C(C2)N(C)CC3` (stereo not drawn) [Compound 9]: the IC50 turned out to be 44.1 µM in test [1] (HepG2, read-out: IC50 HepG2); 47.7 µM in test [2] (read-out: IC50 HeLa); 39.3 µM in test [3] (setting [5]).

As for `COc1cc(NC(=O)Nc2ccc(F)cc2)c2c(c1OC(=O)Nc1ccc(F)cc1)-c1c(OC)c(OC)cc3c1C(C2)N(C)CC3` (stereo not drawn) [Compound 10], the IC50 in test [1] (HepG2, read-out: IC50 HepG2) was 26.7 µM; in test [2] (read-out: IC50 HeLa) it was 26.8 µM; in test [3] (setting [5]), 25.1 µM.

With `COc1cc(NC(=O)c2ccc(Cl)c(C(F)(F)F)c2)c2c(c1O)-c1c(OC)c(OC)cc3c1C(C2)N(C)CC3` (stereo not drawn) [Compound 11, 8-N-(3′-trifluoromethyl-4′-chloro-benzoyl)-isocorydine], the IC50 stood at 21.5 µM in test [1] (setting [4]), 16.6 µM in test [2] (setting [6]) and 21.9 µM in test [3] (setting [7]).

For `COc1cc(NC(=O)/C=C/c2ccccc2)c2c(c1O)-c1c(OC)c(OC)cc3c1C(C2)N(C)CC3` (stereo not drawn) [Compound 12, 8-N-trans-cinnamoyl-isocorydine], the IC50 stood at 63.4 µM in test [1] (setting [4]), 74.5 µM in test [2] (setting [6]) and 37.9 µM in test [3] (setting [7]).

As for `COc1cc(NC(=O)c2cc(Cc3n[nH]c(=O)c4ccccc34)ccc2F)c2c(c1O)-c1c(OC)c(OC)cc3c1C(C2)N(C)CC3` (stereo not drawn) [Compound 13, 8-N-[2-fluoro-5-(4-oxo-3,4-dihydrophthalazin-1-yl)methyl]benzamido isocorydine], the IC50 was found to be 30.2 µM in test [1] (setting [4]), 29.6 µM in test [2] (setting [6]) and 27.2 µM in test [3] (setting [7]).

For the compound `COc1cc(NC(=O)c2cccnc2)c2c(c1O)-c1c(OC)c(OC)cc3c1C(C2)N(C)CC3` (stereo not drawn) [Compound 14, 8-N-nicotinamido-isocorydine], the IC50 worked out at 69.8 µM in test [1] (setting [4]), 49.6 µM in test [2] (setting [6]) and 34.7 µM in test [3] (setting [7]).

`COc1cc(NC(=O)Nc2ccccc2)c2c(c1O)-c1c(OC)c(OC)cc3c1C(C2)N(C)CC3` (stereo not drawn) [Compound 15, 8-N-(phenyl)-ureido-isocorydine]: the results for the IC50 in test [1] (setting [4]), in test [2] (read-out: IC50 HeLa) and in test [3] (setting [5]) were 75.4 µM, 62.1 µM and 56.6 µM, respectively.
